Drawing on paper PMC5349447, “Applying a high-throughput fluorescence polarization assay for the discovery of chemical probes blocking La:RNA interactions in vitro and in cells” (PLoS ONE, 2017), this text covers IC50 and inhibition for 2 compounds.

This assay deals with T1, La protein:fD1-RNA (Homo sapiens, UniProt P05455).
T1 construct: His; made in house; host or cells: E. coli BL21
T1 sequence (P05455 1-408): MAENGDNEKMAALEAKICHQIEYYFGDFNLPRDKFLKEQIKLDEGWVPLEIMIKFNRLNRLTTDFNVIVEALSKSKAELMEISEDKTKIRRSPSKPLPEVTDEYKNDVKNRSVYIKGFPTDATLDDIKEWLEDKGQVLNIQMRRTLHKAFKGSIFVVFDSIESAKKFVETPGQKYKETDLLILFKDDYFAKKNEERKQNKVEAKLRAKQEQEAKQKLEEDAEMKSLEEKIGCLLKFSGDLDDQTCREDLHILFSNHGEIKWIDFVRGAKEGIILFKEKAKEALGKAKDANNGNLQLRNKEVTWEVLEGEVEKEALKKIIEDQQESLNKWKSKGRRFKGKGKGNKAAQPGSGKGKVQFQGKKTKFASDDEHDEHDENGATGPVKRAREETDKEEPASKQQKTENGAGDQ
Kind of assay: La:RNA fluorescence polarization assay (La-FP). The assay is classed as binding. To be noted: for IC50: 1.35 μM La, 0.8 μM fD1-RNA, compound at 25, 50, 100, 1000 μM, read-out: IC50, La:fD1-RNA complex formation (La-FP); for inhibition at 100 µM: compound 100 μM; for inhibition at 1000 µM: compound 1000 μM. The method, then: Measurements of fluorescence and fluorescence polarization were performed on a Spectramax M5 microplate reader (Molecular Devices, Sunnyvale, CA) with the excitation and emission wavelengths 544 nm and 590 nm, respectively. To block unwanted residual excitation light and minimize background interference, a 570 nm “cutoff” filter was applied. Black shallow 384-well micro plates (ProxiPlate ^TM– 384 F Plus, PerkinElmer) were used to record data. To minimize the polarization effects from fluorophore, which may be bound to the surface of the well, both excitation and emission data were recorded from the top of the well. Reading time was 100 ms per well. Millipolarization units (mP) were used to express fluorescence polarization values defined by the equation mP = 1000 x [(Iv—GIh) / (Iv+ GIh)], where Iv and Ih are parallel and perpendicular emission intensity measurements corrected for background (buffer), and G-factor.
The ratio of sensitivities of the detection system for vertically and horizontally polarized light G = Iv/Ih was determined with dilution series of the fluorescence-labeled cyclin D1-RNA oligonucleotide (fD1) only (free-tracer) using SoftMax® Pro Data Acquisition & Analysis Software (Molecular Devices, Sunnyvale, CA). The assay window–the specific binding ΔmP–was defined as the difference between fluorescence polarization (mP) for La protein:fD1 reactions (mPs) and fluorescence polarization of free-fD1 reactions (mPfree): ΔmP = mPs−mPfree.
The assay was formatted using 10 μl reaction volume per well. Assay buffer (20 mM Tris-HCl pH 7.5, 3.0 mM MgCl2, 0.5 mM EDTA, 150 mM NaCl, 0.05% IGEPAL, BGG 100 μg/ml (BGG = Bovine γ-Globulin or γ-Globulins from bovine blood)) was used to dilute all ingredients. Detergent was added to prevent the potential aggregation of small compounds. The aggregation of small compounds can lead to false-positive results in HTS approaches and is indicated by a high Hill factor[50]. To find the optimal concentration of the free fluorescent tracer (fD1), which gives low and stable fluorescence polarization signal, and to calculate the G-factor, 100–1000 nM fD1 dilution series were measured in quadruplicates. Using variable fD1 concentrations, the optimal tracer:protein ratio was determined in binding experiments with increasing concentrations of La protein (1.35–1350 nM). To start the reaction, fD1 and La protein stock solutions were mixed into each well. Each reaction was performed in quadruplicates. After shaking the plate for 2 min followed by 15 min incubation at room temperature, fluorescence polarization signals were recorded as described above. Fluorescence polarization measurements were performed on different days using 7 microtiter plates (111 samples total).
High-throughput screening against the ChemBridge DIVERSet library was carried out under the following conditions: 1 μl of each compound (dissolved in 100% DMSO) was pre-incubated with 8 μl of La protein for 30 min at room temperature, followed by an additional 15 min incubation with 1 μl of fD1 (final concentration of La, fD1, and DMSO in the 10 μl reaction: 1.35 μM La, 0.8 μM fD1, 10% DMSO). The reactions were performed in duplicate. In addition to samples with the compounds, each plate contained 2 background wells (10 μl buffer only), and at least 4 wells for Ps (La and fD1) and Pfree (fD1 alone) reactions. All samples included 10% DMSO. Pilot screening was carried out with 10 mM cocktails of 10 compounds (giving a final concentration of 100 μM for each compound). […] Using the same fluorescence polarization assay format, La protein (1.35 μM) was incubated with each potential hit compound at 25, 50, 100, 1000 μM (in triplicate) for 30 min, followed by an additional 15 min incubation with 0.8 μM fD1. Data points for specific binding (B) were normalized to the maximum specific binding (Bmax), which defines complete saturation of the La protein with fD1 in the absence of a compound (B/Bmax). […]
(In general: In fluorescence polarisation assays a small probe gives low polarisation when free and higher when bound to something large.)

Molecules are shown by their SMILES.

Take `O=C(O)c1ccccc1C(=O)c1ccc(O)cc1O` [C2, 2-(2,4-dihydroxybenzoyl)benzoic acid]: the IC50 worked out at 7.5 µM, the inhibition at 100 µM amounted to 100% and the inhibition at 1000 µM stood at 100%.

`CCOC(=O)c1ccc2c(c1)C1C=CCC1C(C(=O)O)N2` (stereo not drawn) [C6, 8-(ethoxycarbonyl)-3a,4,5,9b-tetrahydro-3Hcyclopenta[c]quinoline-4-carboxylic acid]: the IC50 turned out to be 2.5 µM, the inhibition at 100 µM is 100% and testing at 1000 µM gave an inhibition of 100%.

As usually defined, the IC50 is the concentration at which inhibition is half-maximal. A word on the inhibition: it is how much of the control response was suppressed.
